Assay results as given in ChEMBL document CHEMBL3639062, “Triazolopyridazines as PAR1 inhibitors, production thereof, and use as medicaments” (2015).

Molecular target: T1, Proteinase-activated receptor 1 (Homo sapiens, UniProt P25116)
T1 sequence (P25116 whole entry): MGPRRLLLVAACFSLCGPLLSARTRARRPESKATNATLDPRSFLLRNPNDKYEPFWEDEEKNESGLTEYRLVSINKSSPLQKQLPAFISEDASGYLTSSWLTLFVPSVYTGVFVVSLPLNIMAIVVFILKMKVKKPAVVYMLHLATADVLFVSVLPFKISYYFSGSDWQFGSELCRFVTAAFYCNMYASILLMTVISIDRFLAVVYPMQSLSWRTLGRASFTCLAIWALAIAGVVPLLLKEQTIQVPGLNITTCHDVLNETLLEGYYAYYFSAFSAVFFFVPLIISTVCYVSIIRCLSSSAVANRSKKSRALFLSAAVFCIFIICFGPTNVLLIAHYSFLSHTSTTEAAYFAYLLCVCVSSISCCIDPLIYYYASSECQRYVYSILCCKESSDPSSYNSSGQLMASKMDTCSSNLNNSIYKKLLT
Assay: Binding Assay: The synthesized substances were examined in a PAR1 binding test. This tested whether the substances can inhibit the binding of a radioactively labeled PAR1 agonist known from the literature at the PAR1 receptor (Ho-Sam Ahn, Mol Pharm, 51:350-356, 1997). The human PAR1 receptor was expressed transiently in High Five insect cells. From these cells, after 48 hours, a membrane preparation was produced by standard methods, aliquoted into 10 mM Tris-HCl; 0.3 mM EDTA; 1 mM EGTA; 250 mM sucrose pH 7.5, and stored at -80 C.The substances were preincubated with the membrane at room temperature for 15 minutes, then the radioligand (ALA-(para-F-Phe)-Arg-ChA-homoArg-(3,4-3H-Tyr)-NH2; approx. 40 Ci/mMol) was added. The end concentration of the radioligand in the test buffer (50 mM Tris-HCl; 10 mM MgCl2; 1 mM EGTA; 0.1% BSA; 2% DMSO) was 20 nM, that of the membrane 1 mg/ml. After an incubation time of 60 minutes, 25 uL of the mixture were transferred to a 96-well MultiScreenHTS FB.

IC50: 951 nM
Compound: CCC(CC)Oc1nn2c(=N)n(CC(=O)c3cc(OC)cc(C(C)(C)C)c3)nc2cc1C
